Test results as given in a compilation of properties of binary mixtures (doi:10.1524/zpch.2013.0326).

Test: xn = mol fraction of the nth substance listed
Conditions: 101 kPa

Cc1ccccc1 + CCCCCCCC[n+]1ccc2ccccc2c1.O=S(=O)([N-]S(=O)(=O)C(F)(F)F)C(F)(F)F
x1 = 1
Conditions | viscosity [mPa·s]
298.15 K | 0.56
318.15 K | 0.45
328.15 K | 0.4
338.15 K | 0.37
348.15 K | 0.33

c1ccccc1 + CCCCCCCC[n+]1ccc2ccccc2c1.O=S(=O)([N-]S(=O)(=O)C(F)(F)F)C(F)(F)F
x1 = 1
Conditions | viscosity [mPa·s]
298.15 K | 0.6
318.15 K | 0.47
338.15 K | 0.37
348.15 K | 0.34

c1ccncc1 + CCCCCCCC[n+]1ccc2ccccc2c1.O=S(=O)([N-]S(=O)(=O)C(F)(F)F)C(F)(F)F
x1 = 1
Conditions | viscosity [mPa·s]
218.15 K | 0.67
298.15 K | 0.89
308.15 K | 0.76
328.15 K | 0.59
348.15 K | 0.52

c1ccsc1 + CCCCCCCC[n+]1ccc2ccccc2c1.O=S(=O)([N-]S(=O)(=O)C(F)(F)F)C(F)(F)F
x1 = 1
Conditions | viscosity [mPa·s]
298.15 K | 0.62
308.15 K | 0.54
318.15 K | 0.48
328.15 K | 0.42
338.15 K | 0.38

CCCCCCCC[n+]1ccc2ccccc2c1.O=S(=O)([N-]S(=O)(=O)C(F)(F)F)C(F)(F)F + Cc1ccccc1
viscosity [mPa·s]
Conditions | 298.15 K | 308.15 K | 318.15 K | 328.15 K | 338.15 K | 348.15 K
x2 = 0 | 369 | 191 | 108.7 | 67.9 | – | 31.62
x2 = 0.0818 | – | – | 94.1 | 58.9 | 39.34 | 27.64
x2 = 0.1949 | 200 | 111.3 | – | 43.52 | 29.87 | 21.41
x2 = 0.2746 | 143.3 | – | 50.3 | 33.2 | 23.14 | 16.87
x2 = 0.3638 | 96.8 | 58.2 | 37.73 | – | 18.51 | 13.76
x2 = 0.4295 | 67.4 | – | 27.64 | – | 14.19 | 10.81
x2 = 0.4775 | – | – | 22.12 | 15.77 | – | 9
x2 = 0.4902 | – | 31.17 | 21.24 | 15.26 | 11.43 | 8.83
x2 = 0.5467 | 35.44 | 23.45 | 16.48 | – | 9.23 | 7.21
x2 = 0.6148 | 22.18 | 15.4 | – | 8.46 | 6.59 | 5.28
x2 = 0.7004 | 12.67 | 9.25 | 7.03 | – | 4.44 | 3.65
x2 = 0.7634 | 7.73 | 5.89 | 4.64 | 3.76 | 3.11 | 2.62
x2 = 0.8672 | 3.2 | 2.62 | – | 1.88 | 1.65 | 1.48

CCCCCCCC[n+]1ccc2ccccc2c1.O=S(=O)([N-]S(=O)(=O)C(F)(F)F)C(F)(F)F + c1ccccc1
viscosity [mPa·s]
Conditions | 298.15 K | 308.15 K | 318.15 K | 328.15 K | 338.15 K | 348.15 K
x2 = 0 | – | 191 | – | 67.9 | 44.8 | 31.62
x2 = 0.0912 | 301 | 158.8 | 92 | 57.6 | 38.53 | 27.1
x2 = 0.1505 | 249 | 134.2 | 79.2 | – | 34.07 | 24.21
x2 = 0.295 | 150.9 | 85.5 | 52.8 | 34.86 | 24.3 | 17.61
x2 = 0.332 | 133.1 | 76.4 | – | – | 22.32 | –
x2 = 0.4679 | – | – | 26.93 | 18.76 | 13.7 | 10.41
x2 = 0.5663 | 37.49 | 24.56 | – | 12.25 | 9.21 | 7.15
x2 = 0.654 | 21.25 | 14.55 | 10.5 | 7.91 | 6.15 | –
x2 = 0.673 | – | 7.96 | 6.05 | – | – | 3.15
x2 = 0.7443 | – | 4.55 | 3.6 | 2.94 | 2.46 | 2.11
x2 = 0.8143 | 2.78 | 2.28 | 1.92 | 1.66 | – | 1.34
x2 = 0.8961 | 0.96 | 0.83 | 0.74 | 0.65 | 0.59 | –
